The source of these data is ChEMBL document CHEMBL1126120, “Synthesis and biological evaluation of dihydroeptastatin, a novel inhibitor of 3-hydroxy-3-methylglutaryl coenzyme A reductase” (J Med Chem, 1992).

As a reminder, the IC50 is the concentration at which inhibition is half-maximal. The low end stands for higher potency, the high end for lower potency.

In test [1] the target is T1, 3-hydroxy-3-methylglutaryl-coenzyme A reductase (Homo sapiens, UniProt P04035).
T1 sequence (P04035 whole entry): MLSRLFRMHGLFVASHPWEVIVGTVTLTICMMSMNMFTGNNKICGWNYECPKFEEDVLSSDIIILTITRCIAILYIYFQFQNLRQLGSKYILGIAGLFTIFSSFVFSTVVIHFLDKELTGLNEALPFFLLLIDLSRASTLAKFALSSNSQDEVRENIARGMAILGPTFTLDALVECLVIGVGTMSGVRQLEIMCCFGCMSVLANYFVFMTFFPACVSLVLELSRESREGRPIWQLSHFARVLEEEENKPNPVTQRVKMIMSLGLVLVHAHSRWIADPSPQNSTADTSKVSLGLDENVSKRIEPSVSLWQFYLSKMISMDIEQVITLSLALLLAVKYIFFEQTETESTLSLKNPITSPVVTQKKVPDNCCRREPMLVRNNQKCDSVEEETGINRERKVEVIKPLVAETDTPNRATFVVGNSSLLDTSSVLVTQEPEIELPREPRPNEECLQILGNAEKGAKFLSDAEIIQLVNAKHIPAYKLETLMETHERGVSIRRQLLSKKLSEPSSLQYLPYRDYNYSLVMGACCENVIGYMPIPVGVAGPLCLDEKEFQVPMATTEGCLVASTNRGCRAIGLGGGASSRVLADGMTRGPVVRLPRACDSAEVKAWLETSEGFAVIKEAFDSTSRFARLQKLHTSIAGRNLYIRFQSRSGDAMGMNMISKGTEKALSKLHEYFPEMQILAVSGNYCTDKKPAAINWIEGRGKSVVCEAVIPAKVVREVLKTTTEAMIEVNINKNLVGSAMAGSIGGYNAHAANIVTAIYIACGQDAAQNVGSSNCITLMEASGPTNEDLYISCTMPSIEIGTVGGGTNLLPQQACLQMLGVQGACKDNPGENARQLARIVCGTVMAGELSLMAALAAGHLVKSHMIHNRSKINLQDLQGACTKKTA
Put plainly: Concentration required to inhibit HMG-CoA reductase by 50% was determined in Hep G2 cell line. Format: functional, cell-based, HepG2.

For the next test, the system named is HES. Put plainly: Concentration required to inhibit HMG-CoA reductase by 50% was determined in HES 9 cell line. The settings on record: Homo sapiens. Format: functional, cell-based.
The target of test [2] is T2, 3-hydroxy-3-methylglutaryl-coenzyme A reductase (Rattus norvegicus, UniProt P51639).
T2 sequence (P51639 whole entry): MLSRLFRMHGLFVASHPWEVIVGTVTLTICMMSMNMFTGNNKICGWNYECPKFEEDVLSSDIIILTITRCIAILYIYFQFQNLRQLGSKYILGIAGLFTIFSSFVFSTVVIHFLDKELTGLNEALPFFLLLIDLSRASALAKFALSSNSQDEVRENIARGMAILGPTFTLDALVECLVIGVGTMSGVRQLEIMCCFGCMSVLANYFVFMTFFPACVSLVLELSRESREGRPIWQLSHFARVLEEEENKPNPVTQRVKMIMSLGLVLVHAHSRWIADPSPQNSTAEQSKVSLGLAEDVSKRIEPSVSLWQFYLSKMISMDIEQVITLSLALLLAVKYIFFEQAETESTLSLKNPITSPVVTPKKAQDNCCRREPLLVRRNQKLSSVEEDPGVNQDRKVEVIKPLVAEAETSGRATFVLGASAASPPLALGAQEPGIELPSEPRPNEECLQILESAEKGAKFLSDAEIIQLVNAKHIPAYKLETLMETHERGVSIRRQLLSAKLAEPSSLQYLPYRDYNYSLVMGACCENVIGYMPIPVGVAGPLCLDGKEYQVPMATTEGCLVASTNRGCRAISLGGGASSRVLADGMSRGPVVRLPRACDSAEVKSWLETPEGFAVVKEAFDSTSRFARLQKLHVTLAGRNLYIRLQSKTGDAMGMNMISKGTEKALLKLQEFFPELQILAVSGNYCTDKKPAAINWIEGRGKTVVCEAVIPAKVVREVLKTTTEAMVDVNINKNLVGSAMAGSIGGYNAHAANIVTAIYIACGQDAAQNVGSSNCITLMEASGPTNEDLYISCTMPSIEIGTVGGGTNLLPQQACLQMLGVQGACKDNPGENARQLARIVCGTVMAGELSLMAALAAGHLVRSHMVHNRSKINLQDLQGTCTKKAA
The experiment in a line: Inhibitory activity against HMG-CoA reductase from rat liver microsomal preparation.

Regarding `CC[C@H](C)C(=O)O[C@H]1C[C@@H](C)C=C2C=C[C@H](C)[C@H](CC[C@@H](O)C[C@@H](O)CC(=O)O)[C@H]21`, the IC50 in test [1] came to 29 nM; in the test on HES it was 17 nM.
On to `CC[C@H](C)C(=O)O[C@H]1C[C@@H](C)C=C2C=C[C@H](C)[C@H](CC[C@@H]3C[C@@H](O)CC(=O)O3)[C@H]21` [LOVASTATIN], for which inhibition with HES was half-maximal at 13 nM (IC50).
On to `CC[C@H](C)C(=O)O[C@H]1C[C@H](O)C[C@@H]2C=C[C@H](C)[C@H](CC[C@H](O)C[C@H](O)CC(=O)O)[C@@H]12`, for which the half-inhibitory concentration (IC50) in test [2] worked out at 14 nM; in test [1], 2220 nM; in the test on HES it was 7280 nM.
`CCC(C)(C)C(=O)O[C@H]1C[C@@H](C)C=C2C=C[C@H](C)[C@H](CC[C@@H](O)C[C@@H](O)CC(=O)O)[C@H]21`: the IC50 in test [1] came to 12 nM; in the test with HES, 6.5 nM.
On to `CC[C@H](C)C(=O)O[C@H]1C[C@H](O)C[C@@H]2C=C[C@H](C)[C@H](CCC3C[C@@H](O)CC(=O)O3)[C@@H]12` (stereo not given in full), for which the results for the IC50 (in test [1]; in the test on HES) were 1400 nM and 7000 nM, respectively.
